Laboratory results taken from publication PMC10058894, “Bioactive C21 Steroidal Glycosides from Euphorbia kansui Promoted HepG2 Cell Apoptosis via the Degradation of ATP1A1 and Inhibited Macrophage Polarization under Co-Cultivation” (Molecules, 2023).
Like-named read-outs stand apart in the source and are kept apart here.

Legend:
Format in all cases: cell-based
Huh-7 cells = assay: MTT assay, cell viability of Huh-7 cells; conditions: Homo sapiens, Huh-7; MTT; read-out: Huh-7 IC50
Source text: 2. The anti-proliferation of compound 5 on Huh-7 cells
We tested another hepatoma cell line (Huh-7) to validate effect of compound 5. L02 (normal hepatocytes), HepG2 and Hub-7 cells were used to discuss the effect of 5. […]
of 5 on Huh-7 cell was (24.49±[…]) μM (Table S1). The morphology and apoptosis of the cells by reversed microscope and flow cytometry, respectively.
Second, the expression and phosphorylation of ATP1A1 were detected by Western blot analysis in L02, HepG2 and Huh-7 cells. Compared with L02 group, the expression of ATP1A1 was higher in HepG2 and Huh-7 cells, but there was no significant difference in the phosphorylation of ATP1A1 (Figure […]
At last, the effect of 5 on the expression and the phosphorylation of ATP1A1 in Huh-7 cells was […]
the phosphorylation of ATP1A1. The result was consistent with that observed in HepG2 cells (Figure […]
Table S1 Cell viability of Huh-7 cell treated by compound 5

HepG2 cells = assay: MTT assay, cell viability of HepG2 cells
Experimental: (§1) HepG2 cells (1 × 10^4 cells/well) or RAW264.7 cells ([…]) were incubated in 96T wells for 24 h. Then, HepG2 cells were treated with compounds or Adriamycin for 48 h. In addition, RAW264.7 cells were treated with compounds for 24 h. Then, 0.5% MTT (Sigma, Saint Louis, MO, USA) was added to 20 μL/well for 3.5 h. The supernatant was discarded, and DMSO (150 μL/well) was added to dissolve the purple formazan. Cells were agitated for 15 min at room temperature, and the absorbance at 490 nm was recorded by SpetraMax M2 (Molecular Devices, San Jose, CA, USA).

RAW264.7 cells = assay: MTT assay, cell viability of RAW264.7 cells; conditions: half inhibitory of RAW264.7 cells, 24 h
Experimental: as §1
(§2) RAW264.7 cells (8 × 10^4 cells/well) were incubated in 96T wells with DMEM for 24 h and then treated with compounds and LPS (1 μg/mL) for 24 h; this included the control group and LPS group. Then, the cell supernatant was collected for nitric oxide production assay. Next, 100 uL/well PBS was added to 96T wells, then 0.5% MTT (Sigma, Saint Louis, MO, USA) was added to 20 μL/well for 3.5 h. DMSO (150 μL/well) was added to dissolve the purple formazan. Cells were agitated for 15 min at room temperature, and the absorbance at 490 nm was recorded by SpetraMax M2 (Molecular Devices, San Jose, CA, USA). The NO inhibition rate (%) = (ODLPS group − ODcompound group)/(ODLPS group-ODcontrol group) × 100%. The IC50 value refers to the inhibitory of nitric oxide production of LPS-stimulated RAW264.7 cells. Then, 70 uL of each cell supernatant sample was added into a new 96T plate, and Griess A and Griess B were added separately. Then, the absorbance value at 540 nm was detected and then brought into the standard curve to assay the concentration of NO. The cell survival rate (%) = (ODcompound group − ODblank group)/(ODcontrol group − ODblank group) × 100%. The half concentration of the cell death (CC50) value refers to the concentration of compound 5 when 50% of RAW264.7 cells die. The iNOS inhibitor ([…], L-NMMA) was selected as the positive control. The levels of cytokines (IL-1β, IFN-γ, IL-10, TNF-α, and IL-6) in the cell supernatant were determined using an ELISA kit (Novus Biologicals, Shanghai, China, Lot: 834472, 770118, 772051, 486956, 602865). When the process was conducted according to the manufacturer’s instructions, the absorbance was read at 450 nm/570 nm in a SpectraMax 340PC microplate spectrophotometer (Molecular Devices, San Jose, CA, USA).

[1] = tested on: NO production of LPS-stimulated RAW264.7 cells; assay: Nitric oxide production in LPS-stimulated RAW264.7 cells (Griess); conditions: LPS (1 μg/mL)-stimulated RAW264.7 cells, 24 h, read-out: RAW264.7 IC50 (inhibition of nitric oxide production)
Experimental: as §2

[2] = MTT assay, cell viability of RAW264.7 cells; conditions: mouse, half inhibitory of RAW264.7 cells
Experimental: as §1, §2

ATP1A1 = ATP1A1 (Homo sapiens, UniProt P05023); assay: ATP1A1 level and location in HepG2 cells (western blot, fluorescence staining, lysosomal colocalization); set-up: we focused on the regulatory effect of 5 on ATP1A1 in HepG2 cells; endogenous in cells; host or cells: HepG2; conditions: HepG2; 5 25 μmol∙L−1, digitonin 10, MK 2206 40, FR 180204 200 nmol∙L−1; western blot
Experimental: HepG2 cells (4 × 10^5 cells/well) were incubated in confocal dishes with DMEM for 24 h and then treated with compounds for 48 h. Then, the cells were treated with 0.1% Triton X-100 for 10 min and washed with PBS five times. Finally, the cells were dyed with anti-ATP1A1 at 4 °C overnight. Nuclear staining with DAPI (1 μg∙mL^−1) was added for 7 min in the dark, and the cells were washed. The stained images were captured under a laser scanning confocal microscope (Nikon A1 AIR MP+, Tokyo, Japan). HepG2 cells (5 × 10^5 cells/well) were incubated in 6-well plates in complete DMEM. Cells were treated with compounds for 24 h. Then, the cells were stained with Annexin V/PI for 30 min at 4 °C in the dark, and apoptosis analysis was carried out by laser scanning confocal microscopy.
Protein samples were prepared using a RIPA lysis buffer. The concentration of the protein was analyzed using a nucleic acid and protein microanalyzer (Molecular Devices, San Jose, CA, USA). SDS–PAGE was performed to separate the proteins, which were then electrotransferred onto a PVDF membrane. The membrane was incubated with antibodies at 4 °C overnight. Next, the membrane was washed and incubated with an HRP-conjugated secondary antibody (Beyotime, BeiJing, China). Finally, signals were detected by the ECL method (Beyotime, BeiJing, China) and analyzed using ImageJ software.

| Compound | IC50 (HepG2 cells; 48 h) [µM] | IC50 [1] [µM] | CC50 (RAW264.7 cells) [µM] | other results |
| --- | --- | --- | --- | --- |
| COc1cccc2c1C(=O)c1c(O)c3c(c(O)c1C2=O)C[C@@](O)(C(=O)CO)C[C@@H]3O[C@H]1C[C@H](N)[C@H](O)[C@H](C)O1 [Adr, adriamycin, reference compound] |  |  |  | IC50 (Huh-7 cells): 4.49 ± 0.96 µM; IC50 (HepG2 cells; Homo sapiens, HepG2, 48 h): 6.93 ± 1.23 µM; IC50 (HepG2 cells; Homo sapiens, HepG2, fractions A–E, 48 h): 5.98 ± 2.06 µg/mL |
| CC(=O)[C@]1(O)CC[C@@]2(O)[C@]1(C)[C@H](O)C[C@@H]1[C@@]3(C)CC[C@H](O)CC3=CC[C@]12O [Compound 3, Deacylmetaplexigenin] | > 50 | > 50 | > 50 |  |
| CC(=O)[C@]1(O)CC[C@@]2(O)[C@]1(C)[C@H](OC(=O)/C=C/c1ccccc1)C[C@@H]1[C@@]3(C)CC[C@H](O)CC3=CC[C@]12O [Compound 4, Kidjolanin] | > 50 | 30.7 ± 4.08 | > 50 |  |
| CC1(C)CC[C@]2(C(=O)O)CC[C@]3(C)C(=CC[C@@H]4[C@@]5(C)C[C@@H](O)[C@H](O)C(C)(C)[C@@H]5CC[C@]43C)[C@@H]2C1 [Compound 9, Maslinic acid] |  |  |  | CC50 at 24 h [2]: > 50 µM; IC50 (HepG2 cells; Homo sapiens, HepG2, 48 h): > 50 µM; IC50 ([1]; Mus musculus): 17.4 ± 2.21 µM |
| Nc1[nH]nc2nnc(-c3c(-c4ccccc4)nn4ccccc34)cc12 [FR 180204, reference compound] |  |  |  | expression of ATP1A1 (comparison with inhibitors) (ATP1A1): not similarly observed |
| [H]/N=C(/NC)NCCC[C@H](N)C(=O)O [L-NMMA, NG-monnomycin-L-arginine, reference compound] |  |  |  | CC50 at 24 h [2]: > 50 µM; IC50 ([1]; Mus musculus): 21.2 ± 3.26 µM |
| NC1(c2ccc(-c3nc4ccn5c(=O)[nH]nc5c4cc3-c3ccccc3)cc2)CCC1 [MK 2206, reference compound] |  |  |  | expression of ATP1A1 (comparison with inhibitors) (ATP1A1): not similarly observed |
| C[C@@H]1CC[C@@]2(OC1)O[C@H]1[C@@H](O)[C@H]3[C@@H]4CC[C@H]5C[C@@H](O[C@@H]6O[C@H](CO)[C@H](O[C@@H]7O[C@H](CO)[C@@H](O)[C@H](O[C@@H]8OC[C@@H](O)[C@H](O)[C@H]8O)[C@H]7O[C@@H]7O[C@H](CO)[C@H](O)[C@H](O[C@@H]8O[C@H](CO)[C@@H](O)[C@H](O)[C@H]8O)[C@H]7O)[C@H](O)[C@H]6O)[C@H](O)C[C@]5(C)[C@H]4CC[C@]3(C)[C@H]1[C@@H]2C [digitonin, reference compound] |  |  |  | expression of ATP1A1 (comparison with inhibitors) (ATP1A1): not similarly observed |
| Caudatin 3-O-β-D-digitoxopyranoside [Compound 12] | > 50 | > 50 | > 50 |  |
| Cynotophylloside B [Compound 2] | 41.1 ± 6.05 | 9.1 ± 2.27 | > 50 |  |
| Eupokanu G [Compound 1] | 46.4 ± 3.09 | > 50 | > 50 |  |
| Kidjoranin 3-O-β-digitoxopyranoside [Compound 11] | > 50 | > 50 | > 50 |  |
| Kidjoranin-3-O-β-D-cymaropyranoside [Compound 6] | 27.3 ± 3.48 | 3.32 ± 0.43 | 35.2 ± 5.12 |  |

Continued, in another order:

| IC50 (HepG2 cells; 48 h) [µM] | IC50 [1] [µM] | Compound | CC50 (RAW264.7 cells) [µM] | other results |
| --- | --- | --- | --- | --- |
| 12.6 ± 2.98 | 1.77 ± 0.34 | CO[C@H]1C[C@@H](O[C@H]2[C@H](C)O[C@H](O[C@H]3[C@@H](C)O[C@H](O[C@H]4[C@@H](OC)C[C@H](O[C@@H]5CC[C@]6(C)C(=CCC(=O)[C@H]6C[C@H](OC(=O)/C=C/c6ccccc6)[C@]6(C)C(=O)CC[C@]6(O)[C@@H](C)OC(C)=O)C5)O[C@@H]4C)C[C@H]3OC)C[C@H]2OC)O[C@H](C)[C@H]1O [Compound 7, Wilfoside G] | 26.2 ± 2.22 |  |
| > 50 | 17.4 ± 3.01 | Cynotophylloside J [Compound 8] | > 50 |  |
| 22.7 ± 4.02 | 2.78 ± 0.44 | Kidjoranin 3-O-α-diginopyranosyl-(1→4)-β-cymaropyranoside [Compound 10] | 24.1 ± 3.24 |  |
